According to patent US6750322B2, “Guanosine triphosphate (GTP) binding protein-coupled receptor proteins” (Banyu Pharmaceutical Co., Ltd., priority 1998, dated 2004):

How the values were obtained:
human BG2 [1] = target: T1, human BG2 (Homo sapiens, UniProt Q9Y5N1); test: Intracellular cAMP measurement by CRE-β-lactamase reporter (method of Zlokarmik et al.) in human BG2-expressing HEK 293 cells with forskolin; assay type: cell-based; set-up: the G protein-coupled receptor protein encoded by the isolated human BG2 cDNA, the present inventors prepared cells expressing the protein; expressed in transfected cells; host or cells: HEK 293 cells carrying a CRE-beta-lactamase reporter (Aurora), hygromycin-selected; conditions: drug 1 μg/ml, forskolin 0.5 μM
Experimental: This human BG2 expression vector was introduced by lipofection method into HEK 293 cells in which β-lactamase gene was ligated downstream of CRE sequence (purchased from Aurora). For introducing the gene, Lipofectamine PLUS reagent (GIBCO-BRL) was used and the experimental manipulation was performed according to the attached manual.
Human BG2-expressing cells were selected by placing cells in a medium containing hygromycin, and cells which grew in the medium were used for a functional assay as human BG2-expressing cells.

rat BG2 [2] = target: T2, rat BG2 (Rattus norvegicus, UniProt Q9QYN8); conditions: 10 μM forskolin; various histamine concentrations; 15 min; rat BG2-expressing cells
Experimental: (§1) HEK293-CRE-BLA cells (Aurora) were cultured using the D-MEM/F-12 (1:1) mixed medium (GIBCO BRL) containing 10% fetal calf serum and 500 μg/ml G418 at 37° C. in the presence of 5% CO2. Effectene Transfection Reagent (QIAGEN) was used for gene introduction.
(§2) A day prior to the gene introduction, cells were spread on a 6-well plate (NUNC) at 3×10^5 cells/well and 0.4 μg each of the rat BG-2 and BG2-2 expression vectors was introduced into them using 10 μl/well Effectene Transfection Reagent according to the attached manual. The cells were cultured at 37° C. in the presence of 5% CO2 for 48 hours.
(§3) To isolate single cells into which the target gene was introduced, the cells were detached from a Petri dish by trypsin, and spread to a 96-well plate (NUNC) at 2000 to 250 cells/well. The cells were further cultured in selection medium containing hygromycin at 37° C. in the presence of 5% CO2 for 14 days. Wells containing cells consisting of a single colony were only selected and cells were passage-cultured to prepare a stable cell line. […] As a control, rat BG2-expressing cells were prepared in the same manner.

rat BG2-2 [3] = target: T3, rat BG2-2 (Rattus norvegicus, UniProt Q9QYN8); conditions: 10 μM forskolin; various histamine concentrations; 15 min; rat BG2-2-expressing cells
Experimental: as §1, §2, §3

[4] = tested on: control cells expressing nothing
Experimental: The intracellular cAMP concentration was measured by the method of Zlokarmik et al. (Science, 1998, 279:84). In the method of Zlokarmik et al., intracellular cAMP concentration was measured by introducing the gene in which β-lactamase gene was ligated downstream of the sequence that increased transcription activity of a gene downstream thereof dependently on the increase of intracellular cAMP concentration (CRE: cAMP responsible element), and by measuring fluorescence changes in florescent substrates to which an activity of β-lactamase transcribed and translated by the change of cAMP concentration in the cells was added.
Moreover, to measure the decrease of intracellular cAMP concentration mediated by the bound G protein in seven-transmembrane receptors, an activity of β-lactamase depending on the intracellular cAMP concentration was increased by adding forskolin and the decrease of cAMP in cells was measured with the decrease of β-lactamase activity when a ligand was reacted.
The cells in which the above reporter gene and human BG2 were expressed were washed with PBS(−) buffer (GIBCO-BRL) twice, Cell-dissociation buffer (GIBCO-BRL) was added thereto, and the cells were warmed at 37° C. in a CO2 incubator for 3 min and dissociated from a flask by gently tapping the incubation flask. […]

rat BG2-2 [5] = target: T3, rat BG2-2; test: N-α-methylhistamine binding experiment on membrane fraction of COS7 cells expressing rat BG2-2; set-up: Vectors expressing each BG2 receptor were prepared using pEF1x; expressed in transfected cells; host or cells: COS7 cells (membrane fraction)
Experimental: (§4) Vectors expressing each BG2 receptor were prepared using pEF1x (Biochemical and Biophysical Research Communications, 1998, 250:68-71). Each BG2 expression vector was introduced into COS7 cells by lipofection method. Genes were introduced using Lipofectamine PLUS reagent (GIBCO-BRL) according to the attached manual.
(§5) The cells were cultured at 37° C. for 24 hours in Dulbecco MEM medium (Asahi Techno Glass) to which fetal calf serum (Sigma) was added at a final concentration of 10%, in an incubator in which CO2 concentration was adjusted to 5%. Then, the cells were used for preparing a membrane fraction for the histamine binding experiment.
(§6) The cells into which each BG2 receptor-expressing vector was introduced were crushed in 50 mM Tris-HCl pH 7.4 solution according to the standard method, uncrushed cells were removed by centrifuging at 1,000 g for 10 min, and supernatant was centrifuged at 100,000 g for 10 min to obtain a membrane fraction. The membrane fraction was resuspended in the 50 mM Tris-HCl pH 7.4 solution and centrifuged twice at 100,000 g for 10 min to finally obtain the membrane fraction. The membrane fraction obtained in this manner was suspended in 50 mM Tris-HCl pH 7.4 solution and used for the binding experiment.
(§7) By using N-α-methylhistamine, a histamine analogue agonist, the binding experiment was conducted and the binding constants were determined (Table 2). […]

human BG2 [6] = target: T1, human BG2; test: N-α-methylhistamine binding experiment on membrane fraction of COS7 cells expressing human BG2; set-up: the G protein-coupled receptor protein encoded by the isolated human BG2 cDNA, the present inventors prepared cells expressing the protein; expressed in transfected cells
Experimental: as §4, §5, §6, §7

rat BG2 [7] = target: T2, rat BG2; test: N-α-methylhistamine binding experiment on membrane fraction of COS7 cells expressing rat BG2; set-up: succeeded in isolating a full-length cDNA (rat BG2 cDNA) encoding a rat G protein-coupled receptor; expressed in transfected cells; host or cells: COS7 cells (membrane fraction)
Experimental: as §4, §5, §6, §7

T1 sequence (Q9Y5N1 1-453 isoform Q9Y5N1-2): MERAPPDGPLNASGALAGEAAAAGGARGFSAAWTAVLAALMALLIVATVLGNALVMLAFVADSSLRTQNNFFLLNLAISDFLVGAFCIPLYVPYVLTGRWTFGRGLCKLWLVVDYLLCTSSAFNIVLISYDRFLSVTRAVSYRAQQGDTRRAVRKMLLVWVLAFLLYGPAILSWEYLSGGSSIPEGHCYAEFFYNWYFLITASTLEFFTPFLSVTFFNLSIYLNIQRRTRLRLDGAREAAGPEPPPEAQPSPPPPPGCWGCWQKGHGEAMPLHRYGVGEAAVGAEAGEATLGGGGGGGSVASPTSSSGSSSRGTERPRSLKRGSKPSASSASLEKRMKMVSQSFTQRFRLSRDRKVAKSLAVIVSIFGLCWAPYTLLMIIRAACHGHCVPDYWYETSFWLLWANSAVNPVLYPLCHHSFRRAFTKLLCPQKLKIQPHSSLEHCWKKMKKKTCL
T3 sequence (Q9QYN8 whole entry): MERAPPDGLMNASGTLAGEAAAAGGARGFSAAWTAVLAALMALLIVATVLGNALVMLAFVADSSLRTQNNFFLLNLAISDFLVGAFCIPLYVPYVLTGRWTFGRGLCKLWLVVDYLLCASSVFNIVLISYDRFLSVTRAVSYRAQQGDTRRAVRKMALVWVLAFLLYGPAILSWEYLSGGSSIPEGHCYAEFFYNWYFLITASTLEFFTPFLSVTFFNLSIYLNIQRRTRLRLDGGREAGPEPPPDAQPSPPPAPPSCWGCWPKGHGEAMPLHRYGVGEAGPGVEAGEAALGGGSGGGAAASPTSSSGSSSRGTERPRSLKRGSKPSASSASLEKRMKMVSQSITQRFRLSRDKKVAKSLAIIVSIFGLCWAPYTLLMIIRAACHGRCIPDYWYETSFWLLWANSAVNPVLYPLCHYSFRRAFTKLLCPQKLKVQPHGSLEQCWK
T2 sequence (Q9QYN8 1-413 isoform Q9QYN8-2): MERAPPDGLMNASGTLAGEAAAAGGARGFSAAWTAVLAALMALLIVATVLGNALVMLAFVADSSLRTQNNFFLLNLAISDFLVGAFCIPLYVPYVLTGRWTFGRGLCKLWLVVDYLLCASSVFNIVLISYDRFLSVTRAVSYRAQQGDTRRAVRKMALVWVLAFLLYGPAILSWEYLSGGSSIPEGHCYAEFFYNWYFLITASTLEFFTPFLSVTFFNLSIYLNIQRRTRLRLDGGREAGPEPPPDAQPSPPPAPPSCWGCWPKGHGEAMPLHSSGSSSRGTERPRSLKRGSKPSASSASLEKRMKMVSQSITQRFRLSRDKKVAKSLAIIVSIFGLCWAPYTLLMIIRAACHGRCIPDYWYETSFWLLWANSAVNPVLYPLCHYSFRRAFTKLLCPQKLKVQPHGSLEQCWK

SMILES: NCCc1ccc(O)c(O)c1 [dopamine]
- reduction of intracellular cAMP concentration (in words) (human BG2 [1]): did not reduce intracellular cAMP concentration

SMILES: Cl.Cl.NCCc1c[nH]cn1 [histamine, Histamine dihydrochloride]
- decrease of intracellular cAMP concentration (in words) (rat BG2 [2]): decrease of intracellular cAMP concentration, dependent on histamine concentration, was confirmed
- decrease of intracellular cAMP concentration (in words) (rat BG2-2 [3]): decrease of intracellular cAMP concentration, dependent on histamine concentration, was confirmed
- reduction of intracellular cAMP concentration (in words) [4]: not observed
- reduction of intracellular cAMP concentration (in words) (human BG2 [1]): intracellular cAMP concentration was decreased
- ratio of EM460/EM530 relative to the control (human BG2 [1]; control = 100, absence of forskolin = 0): 35%

SMILES: C[N+](C)(C)CCOC(N)=O [carbachol]
- reduction of intracellular cAMP concentration (in words) (human BG2 [1]): did not reduce intracellular cAMP concentration

SMILES: NCCc1c[nH]c2ccc(O)cc12 [serotonine]
- reduction of intracellular cAMP concentration (in words) (human BG2 [1]): did not reduce intracellular cAMP concentration

SMILES: CNCCc1c[nH]cn1.Cl.Cl [N-α-methylhistamine, Histamine, N-alpha-methyl-dihydrochloride]
- Kd (rat BG2-2 [5]; Rat BG2-2, COS7 membrane fraction, 30° C., 40 min, read-out: Binding Constant): 0.582 ± 0.0261 nM
- specific binding (in words) (rat BG2-2 [5]; rat BG2-2, nonspecific with 2 μM N-α-methylhistamine): specifically bound
- Kd (human BG2 [6]; Human BG2, COS7 membrane fraction, 30° C., 40 min, read-out: Binding Constant): 0.548 ± 0.0751 nM
- specific binding (in words) (human BG2 [6]; human BG2, nonspecific with 2 μM N-α-methylhistamine): specifically bound
- Kd (rat BG2 [7]; Rat BG2, COS7 membrane fraction, 30° C., 40 min, read-out: Binding Constant): 0.503 ± 0.0198 nM
- specific binding (in words) (rat BG2 [7]; rat BG2, nonspecific with 2 μM N-α-methylhistamine): specifically bound
